Values after ≈ are worked out from the molar mass of the structure shown.
Experiments:
[1] = tested on: HOP-92; assay: Cytotoxicity against human HOP-92 cells after 2 days by XTT assay; assay type: functional, cell-based; conditions: HOP-92, 48 h
[2] = tested on: A549; assay: Cytotoxicity against human A549 cells after 2 days by XTT assay; assay type: functional, cell-based; conditions: A549, 48 h
[3] = tested on: MCF7; assay: Cytotoxicity against human MCF7 cells after 2 days by XTT assay; assay type: functional, cell-based; conditions: MCF7, 48 h
[4] = tested on: SF-295; assay: Cytotoxicity against human SF-295 cells after 2 days by XTT assay; assay type: functional, cell-based; conditions: SF-295, 48 h
[5] = tested on: M14; assay: Cytotoxicity against human M14 cells after 2 days by XTT assay; assay type: functional, cell-based; conditions: M14, 48 h
[6] = tested on: OVCAR-3; assay: Cytotoxicity against human OVCAR-3 cells after 2 days by XTT assay; assay type: functional, cell-based; conditions: OVCAR-3, 48 h
[7] = tested on: SNB-19; assay: Cytotoxicity against human SNB-19 cells after 2 days by XTT assay; assay type: functional, cell-based; conditions: SNB-19, 48 h
[8] = tested on: SF-539; assay: Cytotoxicity against human SF-539 cells after 2 days by XTT assay; assay type: functional, cell-based; conditions: SF-539, 48 h
[9] = tested on: Malme-3M; assay: Cytotoxicity against human MALME-3M cells after 2 days by XTT assay; assay type: functional, cell-based; conditions: 48 h
[10] = Cytotoxicity against human LOX cells after 2 days by XTT assay; assay type: functional, cell-based; conditions: 48 h
[11] = tested on: NCI-H522; assay: Antitumor activity against human NCI-H522 cells xenografted in mouse assessed as cell growth at 40 mg/kg by hollow-fiber assay relative to control; assay type: functional
[12] = tested on: U-251; assay: Antitumor activity against human U251 cells xenografted in mouse assessed as cell growth at 40 mg/kg by hollow-fiber assay relative to control; assay type: functional

SMILES	IC50 [1]	IC50 [2]	IC50 [3]	IC50 [4]	IC50 [5]	IC50 [6]	IC50 [7]	IC50 [8]	IC50 [9]	IC50 [10]	Activity [11]	Activity [12]
C=C1C(=O)[C@H](C[C@@H]2C(=O)C[C@H]3[C@@H]4CC[C@H](C)[C@]23CC4(C)C)[C@H]2[C@@H]3CC[C@H](C)[C@]12CC3(C)C [ALERTENONE]	45 µg/mL (≈ 103 µM)	40 µg/mL (≈ 91.6 µM)	40 µg/mL (≈ 91.6 µM)	35 µg/mL (≈ 80.2 µM)	40 µg/mL (≈ 91.6 µM)	35 µg/mL (≈ 80.2 µM)	45 µg/mL (≈ 103 µM)	35 µg/mL (≈ 80.2 µM)	40 µg/mL (≈ 91.6 µM)	> 100 µg/mL	–	–
C=C1C(=O)C[C@H]2[C@@H]3CC[C@H](C)[C@]12CC3(C)C [SUBEROSENONE]	0.11 µg/mL (≈ 0.504 µM)	1.63 µg/mL (≈ 7.47 µM)	0.43 µg/mL (≈ 1.97 µM)	0.03 µg/mL (≈ 0.137 µM)	0.01 µg/mL (≈ 0.0458 µM)	0.02 µg/mL (≈ 0.0916 µM)	0.006 µg/mL (≈ 0.0275 µM)	0.002 µg/mL (≈ 0.00916 µM)	0.008 µg/mL (≈ 0.0366 µM)	0.006 µg/mL (≈ 0.0275 µM)	10%	10%

Source: ChEMBL document CHEMBL1141831, “Alertenone, a dimer of suberosenone from Alertigorgia sp” (J Nat Prod, 1999)
